According to patent US9796733B2, “Imidazo-pyrazine derivatives useful as soluble guanylate cyclase activators” (Merck Sharp & Dohme Corp., priority 2014, dated 2017):

Biological target: T1, sGC α1/β1 heterodimer (Homo sapiens, UniProt Q02108+Q02153)
T1 construct: expressed in transfected cells; host or cells: CHO-K1 (clone #7, CHO-K1/sGC)
T1 sequence (Q02108 1-690): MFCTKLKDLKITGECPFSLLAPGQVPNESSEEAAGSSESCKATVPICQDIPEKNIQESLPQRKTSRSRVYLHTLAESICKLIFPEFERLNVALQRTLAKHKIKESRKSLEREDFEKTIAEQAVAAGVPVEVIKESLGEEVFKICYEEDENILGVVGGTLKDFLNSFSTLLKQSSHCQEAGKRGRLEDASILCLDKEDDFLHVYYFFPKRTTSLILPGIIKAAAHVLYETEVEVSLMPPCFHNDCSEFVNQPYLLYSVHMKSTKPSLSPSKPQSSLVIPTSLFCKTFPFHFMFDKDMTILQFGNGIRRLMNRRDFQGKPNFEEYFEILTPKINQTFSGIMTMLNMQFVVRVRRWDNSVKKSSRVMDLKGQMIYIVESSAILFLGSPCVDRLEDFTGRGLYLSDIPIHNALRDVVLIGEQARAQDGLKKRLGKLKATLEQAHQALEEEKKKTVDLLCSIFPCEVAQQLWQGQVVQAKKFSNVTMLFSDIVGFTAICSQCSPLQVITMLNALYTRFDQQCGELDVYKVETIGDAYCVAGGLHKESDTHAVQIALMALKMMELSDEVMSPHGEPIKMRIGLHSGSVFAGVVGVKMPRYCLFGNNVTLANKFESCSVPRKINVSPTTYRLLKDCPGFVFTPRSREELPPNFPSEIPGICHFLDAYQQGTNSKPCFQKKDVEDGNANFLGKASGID
T1 sequence (Q02153 1-619): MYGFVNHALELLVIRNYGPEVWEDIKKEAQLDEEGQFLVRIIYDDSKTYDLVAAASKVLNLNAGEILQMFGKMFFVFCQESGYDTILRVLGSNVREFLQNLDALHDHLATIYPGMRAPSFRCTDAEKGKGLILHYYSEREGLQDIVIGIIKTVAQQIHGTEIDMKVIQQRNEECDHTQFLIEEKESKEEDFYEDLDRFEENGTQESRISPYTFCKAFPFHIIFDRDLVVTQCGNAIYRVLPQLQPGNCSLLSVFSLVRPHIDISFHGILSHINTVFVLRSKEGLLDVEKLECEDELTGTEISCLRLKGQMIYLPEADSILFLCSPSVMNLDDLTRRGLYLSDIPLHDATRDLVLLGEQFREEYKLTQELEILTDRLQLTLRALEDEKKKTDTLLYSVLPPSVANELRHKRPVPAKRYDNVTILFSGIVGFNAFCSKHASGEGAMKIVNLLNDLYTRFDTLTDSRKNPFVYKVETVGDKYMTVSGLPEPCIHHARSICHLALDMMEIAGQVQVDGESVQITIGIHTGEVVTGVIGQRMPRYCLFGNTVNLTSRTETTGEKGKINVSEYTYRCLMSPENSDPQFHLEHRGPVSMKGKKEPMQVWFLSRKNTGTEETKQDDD
Experiment: Cell-based sGC functional assay (CASA assay): cGMP generation in CHO-K1/sGC cells, HTRF detection
Settings: for Emax: CHO-K1, percent activation relative to standard Compound A in CHO-K1/sGC cells, read-out: % Act.; for EC50: inflection point (IP) of cGMP generation in CHO-K1/sGC cells, 4P fit, activity expressed as percentage of Compound A
How it was run: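 cGMP was quantified by HTRF after 1 hr, 37° C exposure of thawed CHO-K1 cells expressing sGC α1/β1 to compound, with or without 1 μM DETA-NO. IBMX (0.5 mM) blocked cGMP breakdown, and DMSO was 2.5% final. Percent of standard Compound A's maximal cGMP was fitted (4P) for inflection point.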

Structure (SMILES) | Emax [%] | EC50 [nM] | % Act. (percent activation relative to standard Compound A in CHO-K1/sGC cells) [%]
Cc1cc(C2(C3CC3)C(=O)Nc3nc(-c4cn5ccnc5c(CCC(F)(F)C(F)(F)F)n4)nc(N)c32)ncc1F (single isomer, unassigned) [Example 376B, 4-amino-5-cyclopropyl-5-(5-fluoro-4-methylpyridin-2-yl)-2-(8-(3,3,4,4,4-pentafluorobutyl)imidazo[1,2-a]pyrazin-6-yl)-5H-pyrrolo[2,3-d]pyrimidin-6(7H)-one] | 127 | 180 | –
CC1CN(c2nc(-c3cn4ccnc4c(CCC(F)(F)C(F)(F)F)n3)nc3c2C(C)(c2ccc(F)cc2)C(=O)N3)C1 (centres unmarked) [Example 305A, 5-(4-fluorophenyl)-5-methyl-4-(3-methylazetidin-1-yl)-2-(8-(3,3,4,4,4-pentafluorobutyl)imidazo[1,2-a]pyrazin-6-yl)-5H-pyrrolo[2,3-d]pyrimidin-6(7H)-one] | 158 | 147 | –
Nc1nc(-c2cn3ccnc3c(Cc3ccc(F)cc3)n2)nc2c1C(c1ccc(F)cn1)(C1CC1)C(=O)N2 (centres unmarked) [Example 104A, 4-amino-5-cyclopropyl-2-(8-(4-fluorobenzyl)imidazo[1,2-a]pyrazin-6-yl)-5-(5-fluoropyridin-2-yl)-5H-pyrrolo[2,3-d]pyrimidin-6(7H)-one] | 132 | 396 | –
CC1(c2ccc(F)cc2)C(=O)Nc2nc(-c3cn4ccnc4c(C4CCC4)n3)nc(N)c21 (centres unmarked) [Example 21A, 4-amino-2-(8-cyclobutylimidazo[1,2-a]pyrazin-6-yl)-5-(4-fluorophenyl)-5-methyl-5H-pyrrolo[2,3-d]pyrimidin-6(7H)-one] | 95 | 197 | –
Nc1nc(-c2cn3ccnc3c(Cc3ccccc3)n2)nc2c1C(C(=O)NC1CC1)(C1CC1)C(=O)N2 (single isomer, unassigned) [Example 40B, 4-amino-2-(8-benzylimidazo[1,2-a]pyrazin-6-yl)-N,5-dicyclopropyl-6-oxo-6,7-dihydro-5H-pyrrolo[2,3-d]pyrimidine-5-carboxamide] | 127 | 27 | –
Cc1cncc(C2(C3CC3)C(=O)Nc3nc(-c4cn5ccnc5c(CCC(F)(F)C(F)(F)F)n4)nc(N)c32)n1 (single isomer, unassigned) [Example 366B, 4-amino-5-cyclopropyl-5-(6-methylpyrazin-2-yl)-2-(8-(3,3,4,4,4-pentafluorobutyl)imidazo[1,2-a]pyrazin-6-yl)-5H-pyrrolo[2,3-d]pyrimidin-6(7H)-one] | 122 | 843 | –
CC1(c2ccc(F)cc2)C(=O)Nc2nc(-c3cn4ccnc4c(Cc4ccccc4F)n3)nc(N)c21 (centres unmarked) [Example 89A, 4-amino-2-(8-(2-fluorobenzyl)imidazo[1,2-a]pyrazin-6-yl)-5-(4-fluorophenyl)-5-methyl-5H-pyrrolo[2,3-d]pyrimidin-6(7H)-one] | 141 | 4 | –
Cc1ccc(C2(C)C(=O)Nc3nc(-c4cn5ccnc5c(Cc5ccc(F)cc5)n4)nc(N)c32)cn1 (centres unmarked) [Example 105A, 4-amino-2-(8-(4-fluorobenzyl)imidazo[1,2-a]pyrazin-6-yl)-5-methyl-5-(6-methylpyridin-3-yl)-5H-pyrrolo[2,3-d]pyrimidin-6(7H)-one] | 102 | 384 | –
COCCNc1nc(-c2cn3ccnc3c(CCC(F)(F)C(F)(F)F)n2)nc2c1C(C)(c1ccc(F)cn1)C(=O)N2 (centres unmarked) [Example 293B, 5-(5-fluoropyridin-2-yl)-4-((2-methoxyethyl)amino)-5-methyl-2-(8-(3,3,4,4,4-pentafluorobutyl)imidazo[1,2-a]pyrazin-6-yl)-5H-pyrrolo[2,3-d]pyrimidin-6(7H)-one] | 107 | 509 | –
CC(F)(F)c1ccc(C2(C)C(=O)Nc3nc(-c4cn5ccnc5c(CCCC(F)(F)F)n4)nc(N)c32)cn1 (single isomer, unassigned) [Example 380B, 4-amino-5-(6-(1,1-difluoroethyl)pyridin-3-yl)-5-methyl-2-(8-(4,4,4-trifluorobutyl)imidazo[1,2-a]pyrazin-6-yl)-5H-pyrrolo[2,3-d]pyrimidin-6(7H)-one] | 181 | 35 | –
CC1(c2ccc(Cl)cc2)C(=O)Nc2nc(-c3cn4ccnc4cn3)nc(N3CCC(C(F)(F)F)C3)c21 (racemic) [Example 279A, 5-(4-chlorophenyl)-2-(imidazo[1,2-a]pyrazin-6-yl)-5-methyl-4-(3-(trifluoromethyl)pyrrolidin-1-yl)-5H-pyrrolo[2,3-d]pyrimidin-6(7H)-one] | 69 | 58 | –
CCCCc1nc(-c2nc(N)c3c(n2)NC(=O)C3(C)c2ccc(C(F)(F)F)cn2)cn2c(C)cnc12 (centres unmarked) [Example 167B, 4-amino-2-(8-butyl-3-methylimidazo[1,2-a]pyrazin-6-yl)-5-methyl-5-(5-(trifluoromethyl)pyridin-2-yl)-5H-pyrrolo[2,3-d]pyrimidin-6(7H)-one] | 99 | 41 | –
CC1(c2ccc(F)cc2)C(=O)Nc2nc(-c3cn4cc(C(F)(F)F)nc4c(Cc4cccc(F)c4)n3)nc(N)c21 (centres unmarked) [Example 149A, 4-amino-2-(8-(3-fluorobenzyl)-2-(trifluoromethyl)imidazo[1,2-a]pyrazin-6-yl)-5-(4-fluorophenyl)-5-methyl-5H-pyrrolo[2,3-d]pyrimidin-6(7H)-one] | 111 | 22 | –
CCc1cnc2c(CCC(F)(F)C(F)(F)F)nc(-c3nc(N)c4c(n3)NC(=O)C4(C)c3ccc(F)cc3)cn12 (centres unmarked) [Example 161A, 4-amino-2-(3-ethyl-8-(3,3,4,4,4-pentafluorobutyl)imidazo [1,2-a]pyrazin-6-yl)-5-(4-fluorophenyl)-5-methyl-5H-pyrrolo[2,3-d]pyrimidin-6(7H)-one] | 76 | 354 | –
CC1(c2ccc(F)cc2)C(=O)Nc2nc(-c3cn4ccnc4c(C4CC4)n3)nc(N)c21 (centres unmarked) [Example 28A, 4-amino-2-(8-cyclopropylimidazo[1,2-a]pyrazin-6-yl)-5-(4-fluorophenyl)-5-methyl-5H-pyrrolo[2,3-d]pyrimidin-6(7H)-one] | 82 | 652 | –
CC1(c2cccc(F)c2)C(=O)Nc2nc(-c3cn4ccnc4c(CCC(F)(F)F)n3)nc(N)c21 (centres unmarked) [Example 191A, 4-amino-5-(3-fluorophenyl)-5-methyl-2-(8-(3,3,3-trifluoropropyl)imidazo[1,2-a]pyrazin-6-yl)-5H-pyrrolo[2,3-d]pyrimidin-6(7H)-one] | 90 | 130 | –
Nc1nc(-c2cn3ccnc3c(Cc3ccc(F)cc3)n2)nc2c1C(c1ccc(Cl)cn1)(C1CC1)C(=O)N2 (single isomer, unassigned) [Example 108B, 4-amino-5-(5-chloropyridin-2-yl)-5-cyclopropyl-2-(8-(4-fluorobenzyl)imidazo[1,2-a]pyrazin-6-yl)-5H-pyrrolo[2,3-d]pyrimidin-6(7H)-one] | – | 16 | 79
CC1(c2ccc(F)cc2)C(=O)Nc2nc(-c3cn4ccnc4c(Cc4ccc(F)cc4)n3)nc(N)c21 (centres unmarked) [Example 92A, 4-amino-2-(8-(4-fluorobenzyl)imidazo[1,2-a]pyrazin-6-yl)-5-(4-fluorophenyl)-5-methyl-5H-pyrrolo[2,3-d]pyrimidin-6(7H)-one] | 97 | 9 | –
CCCCc1nc(-c2nc(N)c3c(n2)NC(=O)C3(c2ccc(C(F)(F)F)cn2)C2CC2)cn2ccnc12 (centres unmarked) [Example 133A, 4-amino-2-(8-butylimidazo[1,2-a]pyrazin-6-yl)-5-cyclopropyl-5-(5-(trifluoromethyl)pyridin-2-yl)-5H-pyrrolo[2,3-d]pyrimidin-6(7H)-one] | 129 | 37 | –
